This assay is filed under the species Cavia porcellus. As to the kind of experiment: Tested for potent reversible agonist activity on electrically stimulated guinea pig ileal longitudinal muscle preparation. The assay is classed as functional, organism-based. Particulars: Muscle tissue.
Turning to `O=C1CC[C@@]2(O)[C@H]3Cc4ccc(O)c5c4[C@@]2(CCN3CC2CC2)[C@H]1O5` [NALTREXONE], the IC50 was 50 nM.

For `COC(=O)/C=C/C(=O)N[C@@H]1CC[C@@]2(O)[C@H]3Cc4ccc(O)c5c4[C@@]2(CCN3CC2CC2)[C@H]1O5`, the IC50 stood at 4.8 nM.

Molecule `COC(=O)/C=C/C(=O)N[C@@H]1CC[C@@]2(O)C3Cc4ccc(O)c5c4C2(CCN3C)[C@H]1O5` (stereo partly drawn) registered an IC50 of 27 nM. Compared with the last molecule, the IC50 is about 5.6-fold higher.
